Assay [1] addresses T1, BACE1 (Homo sapiens, UniProt P56817).
T1 construct: purchased
Description: In vitro BACE1 enzyme assay. The format is biochemical. The settings on record: mean ± S.E.M of triplicate experiments. How it is done:
The in vitro BACE1 enzyme assay was carried out according to the manufacturer’s recommended protocol with minor modifications. Briefly, a mixture of […] of assay buffer (50 mM sodium acetate, pH 4.5), […] of BACE1 (1.0 U/mL), […] of substrate (750 nM Rh-[…]-Quencher in 50 mM, ammonium bicarbonate) and […] of the test sample was dissolved in 10% DMSO and incubated for 60 min at 25 °C in the dark. Proteolysis of the two fluorophores (Rh-[…]-Quencher) by BACE1 was determined by monitoring formation of the fluorescent donor (Rh-EVNL) at wavelengths of 545 nm for excitation and 585 nm for emission. Fluorescence was measured with a microplate spectrofluorometer (Gemini EM, Sunnyvale, CA, USA).

Assay [2] is described as follows: DPPH radical scavenging activity. The settings on record: mean ± S.E.M of triplicate experiments. As to the method:
DPPH radical scavenging activity was evaluated using the method of Blois, with slight modification. Test samples and DPPH were dissolved in methanol. Each test sample (160 µL) at various concentrations was added to 40 µL of DPPH solution (1.5 × 10^−4 M). After gently mixing and standing at room temperature for 30 min, the optical density of the reactant was measured at 520 nm using a VERSAmax microplate spectrophotometer (Molecular Devices, Sunnyvale, CA, USA). […] L-Ascorbic acid was used as a positive control.
In general terms: The DPPH test is a chemical assay of radical scavenging.

Assay [3] addresses T1, BACE1. Briefly: Enzyme kinetic analysis for BACE1 inhibition (Lineweaver-Burk and secondary plots). It counts as biochemical. As to conditions: for Inhibition mode, BACE1: Lineweaver-Burk plots; for Ki: secondary plot. How it is done: (§1) To elucidate the mechanisms of ChE inhibition, kinetic studies of enzyme activity were performed. The slope or intercept in Lineweaver-Burk plots were drawn in SigmaPlot 12.0 as a function of inhibitor concentration, and the kinetic parameters were determined.
(§2) To determine the mechanism of inhibition, AChE, BChE, and BACE1 inhibition was evaluated by monitoring the effects of different concentrations of substrate (0.4 to 0.8 mM for AChE and BChE; 250 to 750 nM for BACE1). Specifically, AChE, BChE, and BACE1 inhibition assays were performed as described above, but the substrate concentration was varied. Inhibition modes of coumestrol and puerarol against ChEs and BACE1 were determined by Lineweaver–Burk plots. Inhibition constants (Ki) were determined by secondary plots.

Assay [4] concerns the target T2, Electric eel AChE (Electrophorus electricus, UniProt O42275).
T2 construct: purchased Sigma-Aldrich Co. (St. Louis, MO, USA)
Briefly: In vitro ChE enzyme assay (Ellman), AChE. It counts as biochemical. How it is done: (§3) Electric eel AChE (EC 3.1.1.7), horse serum BChE (EC 3.1.1.8), acetylthiocholine iodide (ATCh), butyrylthiocholine chloride (BTCh), 5,5-dithiobis[2-nitrobenzoic acid] […] All required reagent-grade chemicals used in this study were purchased from commercial sources. Coumestrol and puerarol were isolated from P. lobata as described by Seong et al..
(§4) The inhibitory activity of coumestrol and puerarol against ChEs was measured using the spectrophotometric methods reported by Ellman et al. and Jung et al.. ATCh and BTCh were used as substrates to assay the inhibition of AChE and BChE, respectively. All reactions were performed in triplicate and were recorded in a 96-well microplate format using a microplate spectrophotometer (Molecular Devices, Sunnyvale, CA, USA). Percent inhibition was calculated as (1 − S/E) × 100, where E and S were the enzyme activities without and with the test sample, respectively.
A general note: In Ellman's method for cholinesterases, released thiocholine reacts with DTNB.

Assay [5] is described as follows: ONOO− scavenging activity (DHR 123 oxidation). The settings on record: mean ± S.E.M of triplicate experiments; read-out: EC50 Peroxynitrite scavenging. How it is done: In brief, the rhodamine buffer (pH 7.4) consisted of 50 mM sodium phosphate dibasic, 50 mM sodium phosphate monobasic, 90 mM sodium chloride, 5.0 mM potassium chloride, and 100 μM diethylenetriamine pentaacetate. […] The assay buffer was prepared prior to use and placed on ice. Test samples were dissolved in 10% DMSO (100 μM final concentration). The background and final fluorescent intensities were measured 5 min after treatment with and without the addition of authentic ONOO^− (10 μM), dissolved in 0.3 N sodium hydroxide. […] L-penicillamine was used as a positive control.

Assay [6] in a line: Western blot analysis for inhibition of ONOO−-mediated nitrotyrosine formation (BSA nitration). How it is done: Figure 2 Dose-depended inhibition of ONOO^−-mediated albumin nitration by coumestrol and puerarol. Mixtures of test samples, bovine serum albumin (BSA), and ONOO^− were incubated with shaking at 37 °C for 30 min. The reactant was resolved in 10% polyacrylamide gel via electrophoresis. (a) Coumestrol; and (b) puerarol, were used at the indicated concentrations; (c) Quantification of band intensity was calculated using CS Analyzer 3.00 (ATTO Corp., Tokyo, Japan). ^# p < 0.05 indicates a significant difference from the untreated normal group, * p < 0.05 indicate significant differences from the ONOO^− treated control.
The inhibition of ONOO^−-nitrotyrosine formation was evaluated using the method of Aulak et al.. Samples were added to BSA and mixed with ONOO^− (200 µM). After a 10 min incubation period (room temperature), the sample solution was added to Bio-Rad 2X Laemmli Sample buffer with mercaptoethanol and then boiled for 7 min. The reactant was resolved in 10% polyacrylamide gel via electrophoresis and transferred to PVDF membranes. Pre-stained blue protein markers were used for molecular weight determination. […] Densitometric analysis of the western blot results was determined using a CS analyzer v3.00 (ATTO Corp.).
Background: A western blot detects proteins with antibodies after separation by electrophoresis.

Assay [7] concerns the target T3, horse serum BChE (Equus caballus, UniProt P81908).
T3 construct: horse serum BChE (EC 3.1.1.8); purchased Sigma-Aldrich Co. (St. Louis, MO, USA); host or cells: horse serum
Description: In vitro ChE enzyme assay (Ellman), BChE. It counts as biochemical. As to conditions: substrate BTCh; mean ± S.E.M of triplicate experiments. As to the method:
as §3, §4

Assay [8] deals with T2, Electric eel AChE. Description: Enzyme kinetic analysis for AChE inhibition (Lineweaver-Burk and secondary plots). The format is biochemical. As to conditions: for Inhibition mode, AChE: Lineweaver-Burk plots. As to the method:
as §1, §2

Assay [9] concerns the target T3, horse serum BChE. Briefly: Enzyme kinetic analysis for BChE inhibition (Lineweaver-Burk and secondary plots). The settings on record: for Inhibition mode, BChE: Lineweaver-Burk plots; for Ki: secondary plot. The format is biochemical. As to the method: as §1, §2
For assay [10] the following is noted: cited from earlier work.
Where [11] appears, read: substrate ATCh, mean ± S.E.M of triplicate experiments, read-out: IC50 AChE.

Each structure is given as a SMILES string. “Also recorded” adds a separate entry of the source. Where two headings read alike, the source gives them in different places. Bounds are passed on as bounds.

T2 sequence (O42275 24-633): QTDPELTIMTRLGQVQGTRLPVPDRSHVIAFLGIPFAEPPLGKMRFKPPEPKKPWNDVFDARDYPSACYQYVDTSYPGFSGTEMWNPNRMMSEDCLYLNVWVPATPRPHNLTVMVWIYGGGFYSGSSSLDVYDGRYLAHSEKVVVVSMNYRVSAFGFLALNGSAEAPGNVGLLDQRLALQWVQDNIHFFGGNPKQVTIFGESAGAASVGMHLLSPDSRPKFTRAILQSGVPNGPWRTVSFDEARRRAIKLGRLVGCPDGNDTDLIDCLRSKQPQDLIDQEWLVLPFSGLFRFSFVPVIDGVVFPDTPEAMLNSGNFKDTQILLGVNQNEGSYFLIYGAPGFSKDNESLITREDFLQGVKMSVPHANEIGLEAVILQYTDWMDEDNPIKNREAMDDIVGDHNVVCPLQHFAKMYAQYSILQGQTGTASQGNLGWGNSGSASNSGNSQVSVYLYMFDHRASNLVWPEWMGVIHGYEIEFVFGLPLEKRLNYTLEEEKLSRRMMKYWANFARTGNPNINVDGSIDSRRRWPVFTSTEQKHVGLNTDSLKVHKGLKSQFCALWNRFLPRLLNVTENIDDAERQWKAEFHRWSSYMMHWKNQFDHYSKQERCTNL
T3 sequence (P81908 whole entry): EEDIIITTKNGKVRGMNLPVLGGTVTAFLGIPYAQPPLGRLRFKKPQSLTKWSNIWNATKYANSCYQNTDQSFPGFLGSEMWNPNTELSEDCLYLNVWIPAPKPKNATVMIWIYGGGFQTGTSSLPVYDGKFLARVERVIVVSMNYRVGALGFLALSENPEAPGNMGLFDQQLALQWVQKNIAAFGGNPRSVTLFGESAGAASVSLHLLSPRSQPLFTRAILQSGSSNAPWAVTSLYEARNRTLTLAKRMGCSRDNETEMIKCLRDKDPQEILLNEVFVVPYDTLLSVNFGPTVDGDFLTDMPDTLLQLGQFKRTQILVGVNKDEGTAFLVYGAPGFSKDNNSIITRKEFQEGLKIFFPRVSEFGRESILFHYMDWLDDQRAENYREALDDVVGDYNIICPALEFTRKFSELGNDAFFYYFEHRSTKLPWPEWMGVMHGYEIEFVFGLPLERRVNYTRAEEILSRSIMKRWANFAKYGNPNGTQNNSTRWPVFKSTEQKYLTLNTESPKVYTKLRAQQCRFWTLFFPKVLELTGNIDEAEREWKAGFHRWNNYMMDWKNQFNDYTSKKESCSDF
T1 sequence (P56817 46-501): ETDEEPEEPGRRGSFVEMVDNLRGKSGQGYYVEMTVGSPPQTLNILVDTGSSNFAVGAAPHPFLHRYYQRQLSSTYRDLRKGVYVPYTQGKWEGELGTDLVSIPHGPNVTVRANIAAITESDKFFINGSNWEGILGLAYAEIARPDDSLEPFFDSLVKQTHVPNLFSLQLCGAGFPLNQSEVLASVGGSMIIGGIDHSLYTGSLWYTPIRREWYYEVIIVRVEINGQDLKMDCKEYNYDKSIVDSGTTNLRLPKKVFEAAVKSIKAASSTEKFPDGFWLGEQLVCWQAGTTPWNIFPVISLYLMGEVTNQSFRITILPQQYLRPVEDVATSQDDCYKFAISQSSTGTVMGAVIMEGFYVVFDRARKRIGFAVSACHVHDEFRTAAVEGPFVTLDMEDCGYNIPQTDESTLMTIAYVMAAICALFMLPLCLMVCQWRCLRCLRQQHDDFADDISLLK

The IC50 is the concentration that inhibits the measured activity by half. Usually EC50 stands for the concentration at which the effect is half-maximal. One may read the Ki as the equilibrium dissociation constant of an inhibitor or competing ligand from its target. For `CC(C)=CCCC(C)=CCc1cc2c(cc1O)oc(=O)c1c3ccc(O)cc3oc21` [Puerarol], the half-inhibitory concentration (IC50) was 28.2 ± 2.48 µM at BACE1 [1], 145 ± 2.46 µM at Electric eel AChE [4] (setting [11]) and above 200 µM against horse serum BChE [7]. For the same compound, the EC50 worked out at 82.5 ± 1.33 µM in assay [2] and 6.99 ± 0.3 µM in [5]. In addition, the results for the “Inhibition mode, BACE1” value at BACE1 [3] and at BACE1 [3] (listed as puerarol) were “Mixed-type ^e” and “mixed inhibition; also recorded: mixed type”, respectively. Besides, the Ki worked out at 73.2 µM at BACE1 [3] (binding constant of inhibitor with enzyme-substrate complex, read-out: Ki value Kiu, BACE1) and 33.8 µM at BACE1 [3] (binding constant of inhibitor with free enzyme, read-out: Ki value Kic, BACE1). The “Blot intensity of ONOO−-mediated nitrated BSA” value in assay [6] (50–200 µM) is reported as “dose dependent decrease”.
As to `O=c1oc2cc(O)ccc2c2oc3cc(O)ccc3c12` [Coumestrol], the “Inhibition mode, AChE” value at Electric eel AChE [8] is “Competitive”; on Electric eel AChE [8] (listed as coumestrol) it was “competitive”. Also, the inhibitory constant (Ki) at Electric eel AChE [8] (secondary plot, binding constant of inhibitor with free enzyme, read-out: Ki value Kic, AChE) was 48.9 µM; on horse serum BChE [9] (binding constant of inhibitor with enzyme-substrate complex, read-out: Ki value Kiu, BChE), 41.9 µM; on horse serum BChE [9] (binding constant of inhibitor with free enzyme, read-out: Ki value Kic, BChE), 12.1 µM. Further, the IC50 on BACE1 [1] is 51 ± 1.86 µM; on Electric eel AChE [4] (setting [11]) it was 42.3 ± 1.29 µM; at horse serum BChE [7], 24.6 ± 2.28 µM. In addition, the “Inhibition mode, BChE” value is “Mixed-type” on horse serum BChE [9] and “mixed type” on horse serum BChE [9] (listed as coumestrol). Besides, the EC50 was determined as 54 ± 1 µM in [2] and 1.17 ± 0.11 µM in assay [5]. Moreover, the “Blot intensity of ONOO−-mediated nitrated BSA” value in assay [6] (10 µM to 100 µM) is given as “dose dependent decrease”. Further, the DPPH scavenging result in [10] (ref 29 (Booth et al.)) is reported as “inactivity”.
As for `O=C1O[C@H]([C@@H](O)CO)C(O)=C1O` [L-Ascorbic acid, reference compound], the EC50 in [2] was 17.4 ± 0.32 µM.
`COc1ccc2cc3[n+](cc2c1OC)CCc1cc2c(cc1-3)OCO2` [Berberine, berberine chloride, reference compound] yielded an IC50 at Electric eel AChE [4] of 2.22 ± 0.02 µM.
As for `COc1cc(O)c2c(c1)oc(=O)c1c3cc(O)c(O)cc3oc21` [wedelolactone, reference compound], the half-inhibitory concentration (IC50) in assay [10] (read-out: DPPH scavenging activity IC50) was 7 µM.
